Assay results published in patent US9597342B2 (UWM Research Foundation, Inc., priority 2011, dated 2017).

What was measured:
[1] = In vitro metabolic stability using human liver microsomes
Method: The metabolic stability of 15 GABAA receptor ligands using human liver microsomes was studied. The test articles were incubated at two concentrations (1 and 10 μM) and aliquots (100 μl) were removed at various time points (0, 15, 30 and 60 minutes), and analyzed by LC-MS/MS.
(§1) The test articles were incubated at two concentrations (1 and 10 μM) in 96-well plate format with active or heat-inactivated human liver microsomes and cofactors. Aliquots were removed at 0, 15, 30 and 60 minutes and mixed with acetonitrile containing internal standard for analysis. Samples were extracted and assayed using a liquid chromatography/tandem mass spectrometry (LC-MS/MS) analytical method.
Pooled human liver microsomes (Lot #38289, pool of 150 different male and female donor livers) were obtained from BD Biosciences Corporation (Woburn, Mass.). Microsomes were stored at ˜−135° C. until use.
(§2) The test articles (1 and 10 μM) were incubated with human liver microsomes (0.5 mg protein/ml) and appropriate cofactors (2.5 mM NADPH and 3.3 mM magnesium chloride) in 100 mM phosphate buffer, pH 7.4 (0.1% final DMSO), in a 37° C. water bath. Incubations with all compounds were initiated with the addition of microsomes. At selected time points (0, 15, 30 and 60 min), a single 100 μl aliquot was removed from each sample and mixed with 200 μl of chilled acetonitrile containing internal standard. Following brief vortexing and centrifugation, the samples were further diluted into a 96-well plate for subsequent LC-MS/MS analysis. All samples were assayed in duplicate.
(§3) Experimental controls consisted of: a) incubation of all components except test article for 0 and 60 min, b) incubation of midazolam (positive control) at 10 μM for 0, 15, 30 and 60 min, and c) incubation of 1 and 10 μM test article and 10 μM midazolam with heat-inactivated microsomes (0.5 mg protein/ml) for 0 and 60 min. All controls were assayed in duplicate.
Samples were analyzed by LC-MS/MS in multiple reaction monitoring mode using positive-ion electrospray ionization. The details of the LC-MS/MS method can be provided upon request.
(§4) Data from the metabolic stability assays were transferred to and processed in a Microsoft Excel spreadsheet. To determine metabolic stability, the percent remaining at each time point was calculated by dividing the peak area ratio of test article/internal standard at each time point by the peak area ratio at 0 min multiplied by 100.

[2] = Incubation with heat-inactivated human liver microsomes (stability control); conditions: 60 min
Method: as §1, §2, §3, §4

## O=C(OCCCCOC(=O)c1ncn2c1[C@@H]1CCCN1C(=O)c1cc(Br)ccc1-2)c1ncn2c1C1CCCN1C(=O)c1cc(Br)ccc1-2 (stereo partly shown)
other
  melting point: 166 to 171 °C

## O=C(OCCCCCOC(=O)c1ncn2c1[C@@H]1CCCN1C(=O)c1cc(Br)ccc1-2)c1ncn2c1C1CCCN1C(=O)c1cc(Br)ccc1-2 (stereo partly shown)
other
  melting point: 157 to 161 °C

## C#Cc1ccc2c(c1)C(c1ccccc1)=NCc1c(C(=O)OCCCOC(=O)c3ncn4c3CN(C)C(=O)c3cc(Cl)ccc3-4)ncn1-2
[1]; 1 μM, 15 min
  Mean % Remaining vs T = 0 min, Human Liver Microsomes: 87.3%
[1]; 1 μM, 30 min
  Mean % Remaining vs T = 0 min, Human Liver Microsomes: 39.4%
[1]; 10 μM, 15 min
  Mean % Remaining vs T = 0 min, Human Liver Microsomes: 107%
[1]; 10 μM, 30 min
  Mean % Remaining vs T = 0 min, Human Liver Microsomes: 104%
[1]; 10 μM, 60 min
  Mean % Remaining vs T = 0 min, Human Liver Microsomes: 82.8%
other
  melting point: 179 to 184 °C
[2]; 1 μM
  Mean % Remaining vs T = 0 min, with HI (Heat Inactivated) Microsomes: 141%
[2]; 10 μM
  Mean % Remaining vs T = 0 min, with HI (Heat Inactivated) Microsomes: 114%

## C#Cc1ccc2c(c1)C(=O)N1CCCC1c1c(C(=O)OCCCOC(=O)c3ncn4c3CN(C)C(=O)c3cc(Cl)ccc3-4)ncn1-2 (stereo not shown)
other
  melting point: 174 to 176 °C

## C#Cc1ccc2c(c1)C(=O)N1CCCC1c1c(C(=O)N3CCN(C(=O)c4ncn5c4[C@@H]4CCCN4C(=O)c4cc(C#C)ccc4-5)CC3)ncn1-2 (stereo partly shown)
other
  melting point: 206 to 211 °C

## C#Cc1ccc2c(c1)C(c1ccccc1)=NCc1c(C(=O)NC)ncn1-2
other
  melting point: 237 to 238 °C

## C#Cc1ccc2c(c1)C(c1ccccc1F)=N[C@@H](C)c1c(C(=O)OCCCCCOC(=O)c3ncn4c3CN(C)C(=O)c3cc(Cl)ccc3-4)ncn1-2
other
  melting point: 157 to 162 °C (dec.)

## C#Cc1ccc2c(c1)C(c1ccccc1F)=N[C@@H](C)c1c(C(=O)OCCCCOC(=O)c3ncn4c3[C@H](C)N=C(c3ccccc3F)c3cc(C#C)ccc3-4)ncn1-2
other
  melting point: 158 to 160 °C

## C#Cc1ccc2c(c1)C(c1ccccc1F)=N[C@@H](C)c1c(C(=O)OCCCCCOC(=O)c3ncn4c3[C@H](C)N=C(c3ccccc3F)c3cc(C#C)ccc3-4)ncn1-2
other
  melting point: 150 to 155 °C

## C#Cc1ccc2c(c1)C(c1ccccc1F)=N[C@@H](C)c1c(C(=O)N3CCN(C(=O)c4ncn5c4[C@H](C)N=C(c4ccccc4F)c4cc(C#C)ccc4-5)CC3)ncn1-2
other
  melting point: 180 to 190 °C

## C#Cc1ccc2c(c1)C(c1ccccc1)=NCc1c(C(=O)OCCCCCOC(=O)c3ncn4c3CN(C)C(=O)c3cc(Cl)ccc3-4)ncn1-2
other
  melting point: 155 to 160 °C (dec.)

## C#Cc1ccc2c(c1)C(c1ccccc1F)=NCc1c(C(=O)OCCCCCOC(=O)c3ncn4c3CN(C)C(=O)c3cc(Cl)ccc3-4)ncn1-2
other
  melting point: 125 to 130 °C

## C#Cc1ccc2c(c1)C(c1ccccc1)=NCc1c(C(=O)OCCCCCOC(=O)c3ncn4c3CN=C(c3ccccc3F)c3cc(C#C)ccc3-4)ncn1-2
other
  melting point: 145 to 150 °C

## CN1Cc2c(C(=O)OCCCCOC(=O)c3ncn4c3CN(C)C(=O)c3cc(Cl)ccc3-4)ncn2-c2ccc(Cl)cc2C1=O
other
  melting point: 308 to 312 °C

## CN1Cc2c(C(=O)OCCCCCOC(=O)c3ncn4c3CN(C)C(=O)c3cc(Cl)ccc3-4)ncn2-c2ccc(Cl)cc2C1=O
other
  melting point: 146 to 152 °C

## CN1Cc2c(C(=O)N3CCN(C(=O)c4ncn5c4CN(C)C(=O)c4cc(Cl)ccc4-5)CC3)ncn2-c2ccc(Cl)cc2C1=O
other
  melting point: 367 to 374 °C

## C#Cc1ccc2c(c1)C(c1ccccc1F)=NCc1c(C(=O)NC)ncn1-2 [HJ-I-037, 8-Ethynyl-N-methyl-6-(2-fluorophenyl)-4H-benzo[f]imidazo[1,5-a][1,4]diazepine-3-carboxamide]
[1]; 1 μM, 15 min
  Mean % Remaining vs T = 0 min, Human Liver Microsomes: 97.7%
[1]; 1 μM, 30 min
  Mean % Remaining vs T = 0 min, Human Liver Microsomes: 99.5%
[1]; 1 μM, 60 min
  Mean % Remaining vs T = 0 min, Human Liver Microsomes: 92.7%
[1]; 10 μM, 15 min
  Mean % Remaining vs T = 0 min, Human Liver Microsomes: 96.8%
[1]; 10 μM, 30 min
  Mean % Remaining vs T = 0 min, Human Liver Microsomes: 103%
[1]; 10 μM, 60 min
  Mean % Remaining vs T = 0 min, Human Liver Microsomes: 103%
other
  melting point: 235 to 236 °C
[2]; 1 μM
  Mean % Remaining vs T = 0 min, with HI (Heat Inactivated) Microsomes: 117%
[2]; 10 μM
  Mean % Remaining vs T = 0 min, with HI (Heat Inactivated) Microsomes: 108%

## C#Cc1ccc2c(c1)C(c1ccccn1)=NCc1c(C(=O)NC)ncn1-2 [HJ-I-40, 8-Ethynyl-N-methyl-6-(pyridine-2-yl)-4H-benzo[f]imidazo[1,5-a][1,4]diazepine-3-carboxamide]
[1]; 1 μM, 15 min
  Mean % Remaining vs T = 0 min, Human Liver Microsomes: 109%
[1]; 1 μM, 30 min
  Mean % Remaining vs T = 0 min, Human Liver Microsomes: 126%
[1]; 1 μM, 60 min
  Mean % Remaining vs T = 0 min, Human Liver Microsomes: 136%
[1]; 10 μM, 15 min
  Mean % Remaining vs T = 0 min, Human Liver Microsomes: 104%
[1]; 10 μM, 30 min
  Mean % Remaining vs T = 0 min, Human Liver Microsomes: 106%
[1]; 10 μM, 60 min
  Mean % Remaining vs T = 0 min, Human Liver Microsomes: 110%
other
  melting point: 215 to 216 °C
[2]; 1 μM
  Mean % Remaining vs T = 0 min, with HI (Heat Inactivated) Microsomes: 110%
[2]; 10 μM
  Mean % Remaining vs T = 0 min, with HI (Heat Inactivated) Microsomes: 110%

## C#Cc1ccc2c(c1)C(c1ccccn1)=NCc1c(C(=O)SC)ncn1-2 [ZJW-II-065, S-Methyl-8-Ethynyl-Methyl-6-(Pyridine-2-yl)-4H-Benzo-[f]-Imidazo-[1,5-a]-[1,4]-Diazepine-3-Carbothioate]
[1]; 1 μM, 15 min
  Mean % Remaining vs T = 0 min, Human Liver Microsomes: 98.4%
[1]; 1 μM, 30 min
  Mean % Remaining vs T = 0 min, Human Liver Microsomes: 97.0%
[1]; 1 μM, 60 min
  Mean % Remaining vs T = 0 min, Human Liver Microsomes: 82.5%
[1]; 10 μM, 15 min
  Mean % Remaining vs T = 0 min, Human Liver Microsomes: 111%
[1]; 10 μM, 30 min
  Mean % Remaining vs T = 0 min, Human Liver Microsomes: 106%
[1]; 10 μM, 60 min
  Mean % Remaining vs T = 0 min, Human Liver Microsomes: 95.6%
[2]; 1 μM
  Mean % Remaining vs T = 0 min, with HI (Heat Inactivated) Microsomes: 105%
[2]; 10 μM
  Mean % Remaining vs T = 0 min, with HI (Heat Inactivated) Microsomes: 110%
